Measurements as given in patent publication US12637469B2, “1H-pyrazole derivative and application thereof as dual target inhibitor of Syk and VEGFR2” (Ocumension Therapeutics (Suzhou) Co., Ltd., priority 2020, dated 2026).

Legend:
CYP2D6 = target: T1, CYP2D6 (Homo sapiens, UniProt P10635); experiment: Inhibition of cytochrome P450 enzymes in human liver microsomes (LC-MS/MS); type: in vitro ADME
T1 construct: human liver microsome working solution was prepared; from tissue; host or cells: human liver microsomes
T1 sequence (P10635 whole entry): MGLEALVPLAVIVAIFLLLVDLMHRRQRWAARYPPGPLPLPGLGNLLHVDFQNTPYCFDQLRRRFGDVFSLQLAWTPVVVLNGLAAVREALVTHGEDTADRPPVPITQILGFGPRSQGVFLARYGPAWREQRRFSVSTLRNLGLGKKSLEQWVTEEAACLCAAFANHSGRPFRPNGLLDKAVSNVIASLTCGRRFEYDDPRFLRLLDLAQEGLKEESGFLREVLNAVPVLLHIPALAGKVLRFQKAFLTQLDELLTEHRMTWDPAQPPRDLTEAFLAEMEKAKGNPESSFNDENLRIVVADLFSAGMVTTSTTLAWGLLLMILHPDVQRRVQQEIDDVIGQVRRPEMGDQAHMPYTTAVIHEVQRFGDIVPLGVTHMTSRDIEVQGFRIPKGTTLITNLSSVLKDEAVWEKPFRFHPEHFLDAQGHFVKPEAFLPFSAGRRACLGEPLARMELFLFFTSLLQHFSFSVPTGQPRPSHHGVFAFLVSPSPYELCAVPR
Experimental: In order to investigate the activity of the compound on human liver microsomal CYP450 enzyme, Liquid Chromatography-Mass Spectrometry/Mass Spectrometry (LC-MS/MS) method was used in this study to determine the inhibitory effect of compound 1 on five main subtypes (CYP1A2, 2C9, 2C19, 2D6, 3A4) of human hepatocyte CYP450 enzyme, and compound screening and analysis were conducted using IC50 value as the indicator.
• 1) A test compound and a standard inhibitor working solution (100×) were prepared; • 2) microsomes were taken out of a −80° C. freezer, thawed on ice, labeled with the date, and put back in the freezer immediately after use; • 3) 20 microliters of matrix solution was added to the corresponding wells; • 4) 20 microliters of phosphate buffered saline was added to the blank wells; • 5) 2 microliters of the test compound and positive control working solution were added to the corresponding wells; • 6) 2 microliters of solvent was added to each of the inhibitor-free wells and the blank wells; • 7) human liver microsome working solution was prepared; • 8) 158 microliters of HLM working solution was added to all wells of the incubation plate; • 9) the plate was heated in a 37° C. water bath for about 10 minutes; • 10) NADPH cofactor solution was prepared; • 11) 20 microliters of NADPH cofactor was added to all of the incubation wells; • 12) all CYPs were subjected to mixed culture in a 37° C. water bath for 10 minutes; • 13) at a certain point in time, the reaction was stopped by adding 400 microliters of cold solution (200 ng/mL of tolbutamide in acetonitrile and 200 ng/mL of Labetalol in acetonitrile); • 14) the samples were centrifuged at 4000 rpm for 20 minutes to precipitate proteins; • 15) 200 microliters of supernatant was transferred into 100 microliters of high performance liquid chromatography water, and shaked for 10 minutes; • 16) LC/MS/MS analysis was started.

[1] = target: VEGFR2 kinase (KDR enzyme) (Homo sapiens, UniProt P35968); experiment: In vitro inhibitory effect on VEGFR2 kinase (ADP-Glo enzymatic experiment); type: biochemical; conditions: read-out: IC50 (nM) for inhibition of VEFGR2 enzyme
VEGFR2 kinase (KDR enzyme), sequence (P35968 20-1356, species assumed): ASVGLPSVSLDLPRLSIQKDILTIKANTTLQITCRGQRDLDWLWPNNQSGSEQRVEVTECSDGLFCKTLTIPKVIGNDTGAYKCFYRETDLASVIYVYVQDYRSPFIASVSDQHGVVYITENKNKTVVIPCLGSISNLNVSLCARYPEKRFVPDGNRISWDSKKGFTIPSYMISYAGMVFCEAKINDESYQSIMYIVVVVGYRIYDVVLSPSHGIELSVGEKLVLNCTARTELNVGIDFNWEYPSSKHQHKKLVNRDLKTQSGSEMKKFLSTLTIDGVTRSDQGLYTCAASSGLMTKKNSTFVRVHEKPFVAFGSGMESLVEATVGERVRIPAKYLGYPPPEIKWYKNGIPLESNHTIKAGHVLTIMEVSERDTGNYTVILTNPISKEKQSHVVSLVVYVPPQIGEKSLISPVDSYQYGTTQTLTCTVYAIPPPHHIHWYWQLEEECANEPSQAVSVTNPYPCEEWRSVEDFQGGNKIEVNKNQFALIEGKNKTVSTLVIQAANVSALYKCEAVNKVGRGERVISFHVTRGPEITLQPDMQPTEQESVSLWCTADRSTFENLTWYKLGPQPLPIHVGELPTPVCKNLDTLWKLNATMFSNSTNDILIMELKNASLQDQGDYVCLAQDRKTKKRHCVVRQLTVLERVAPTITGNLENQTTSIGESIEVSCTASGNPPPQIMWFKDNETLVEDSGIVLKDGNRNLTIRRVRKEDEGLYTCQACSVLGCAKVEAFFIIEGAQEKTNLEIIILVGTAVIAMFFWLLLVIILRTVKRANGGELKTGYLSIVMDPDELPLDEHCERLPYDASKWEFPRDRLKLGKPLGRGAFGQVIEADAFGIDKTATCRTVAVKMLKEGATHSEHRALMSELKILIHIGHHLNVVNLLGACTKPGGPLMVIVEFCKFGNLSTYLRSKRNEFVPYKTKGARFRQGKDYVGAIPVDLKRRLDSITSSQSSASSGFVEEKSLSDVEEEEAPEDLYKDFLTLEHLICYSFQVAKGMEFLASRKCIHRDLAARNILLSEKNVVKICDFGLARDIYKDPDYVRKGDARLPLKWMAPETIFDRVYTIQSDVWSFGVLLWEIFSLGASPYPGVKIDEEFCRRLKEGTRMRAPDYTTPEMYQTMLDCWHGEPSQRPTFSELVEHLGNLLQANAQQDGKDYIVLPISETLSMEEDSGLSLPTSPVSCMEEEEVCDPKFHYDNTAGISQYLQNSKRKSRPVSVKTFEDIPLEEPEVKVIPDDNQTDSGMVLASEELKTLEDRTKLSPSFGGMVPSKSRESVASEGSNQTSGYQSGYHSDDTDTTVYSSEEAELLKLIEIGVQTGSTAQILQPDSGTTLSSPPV
Experimental: The VEGFR2 kinase assay kit is intended for measuring VEGFR2 kinase activity using Kinase-Glo®MAX as a detection reagent, and compound screening and analysis were conducted using the IC50 value of the compound as an indicator.
The ADP-GLO™ Kinase Assay is an analytical reaction in which a luminescent kinase is used to determine the adenosine diphosphate formed by the kinase; ADP is converted to ATP, i.e., an optical signal is generated by Ultra-Glo™ luciferase. The optical signal is positively correlated with ADP quantity and kinase activity. This assay is ideal for determining the activity of the compound, making it ideal for primary screening and kinase selectivity analysis. The ADP-Glo™ Kinase Assay can be used to monitor the activity of virtually any ADP-producing enzyme such as a kinase orATPase: • 1) The enzyme, substrate, ATP and inhibitor were diluted in a kinase buffer; • 2) 384-well plate: 1 μL of inhibitor or (5% dimethyl sulfoxide solution), 2 μL of KDR enzyme, 2 μL of matrix/ATP mixture; • 3) the mixture was incubated at room temperature for 60 minutes; • 4) 5 μL of ADP-GLO™ reagent was added; • 5) the mixture was incubated for 40 minutes at room temperature; • 6) 10 μL of kinase detection reagent was added; • 7) the mixture was incubated at room temperature for 30 minutes; • 8) the luminescence was recorded (integration time 0.5-1 sec). The data was shown in relative light units (rlu), which was directly related to the amount of […]. There was correlation between the percent of the conversion from ATP to ADP for each kinase amount and the corresponding signal-to-background ratio. • 9) Data analysis: (a) KDR enzyme was titrated with 50 μM of ATP, and the luminescent signal produced by KDR enzyme was shown; (b) staurosporine dose response was generated with 1.5 ng of KDR to determine the IC50 value of the inhibitor.

`c1cn2c(n1)c(Nc1ccc(N3CCOCC3)cc1)nc1ccc(-c3cn[nH]c3)cc12` [Compound 1] was tested, and the IC50 (CYP2D6) was over 50000 nM and the IC50 [1] was 23 nM.
